{"source": "patent US11738065B2", "about": "“Polypeptides and analogues thereof for use in the treatment of diabetes and bone disorders” (UNIVERSITY OF ULSTER, priority 2015, dated 2023)", "key": {"purified porcine DPP-4": {"target": "T1, purified porcine DPP-4 (Sus scrofa, UniProt P22411)", "T1 construct": "purchased Sigma-Aldrich, Dorset, UK", "T1 sequence (P22411 whole entry)": "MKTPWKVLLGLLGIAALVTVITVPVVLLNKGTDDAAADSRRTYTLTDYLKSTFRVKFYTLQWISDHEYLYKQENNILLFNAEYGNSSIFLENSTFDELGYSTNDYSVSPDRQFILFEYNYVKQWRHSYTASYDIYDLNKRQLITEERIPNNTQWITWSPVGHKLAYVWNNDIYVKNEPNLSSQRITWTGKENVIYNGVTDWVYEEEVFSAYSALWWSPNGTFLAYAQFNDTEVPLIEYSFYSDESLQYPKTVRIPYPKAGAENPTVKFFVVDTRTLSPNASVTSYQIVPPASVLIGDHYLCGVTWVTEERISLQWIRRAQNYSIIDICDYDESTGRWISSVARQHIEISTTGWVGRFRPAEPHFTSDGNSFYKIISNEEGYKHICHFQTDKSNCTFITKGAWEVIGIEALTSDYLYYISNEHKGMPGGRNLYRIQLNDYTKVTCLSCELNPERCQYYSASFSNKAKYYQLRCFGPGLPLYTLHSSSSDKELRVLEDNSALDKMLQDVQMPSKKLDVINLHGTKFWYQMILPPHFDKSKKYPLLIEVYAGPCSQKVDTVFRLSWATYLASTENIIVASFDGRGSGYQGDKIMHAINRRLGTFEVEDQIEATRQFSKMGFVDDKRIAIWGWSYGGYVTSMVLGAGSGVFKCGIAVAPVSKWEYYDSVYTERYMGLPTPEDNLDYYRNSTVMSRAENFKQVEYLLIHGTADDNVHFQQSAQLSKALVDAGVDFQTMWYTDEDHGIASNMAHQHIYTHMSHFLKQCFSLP", "test": "DPP-4 degradation / in vitro DPP-4 half-life", "assay_type": "in vitro ADME", "details": "incubated in the presence of DPP-4 for up to 12 hs", "method": "(§1) For calculation of experimental molecular masses, peptide samples (1 μg) were mixed with α-cyano-4-hydroxycinnamic acid (1 μg) and applied to a Voyager-DE BioSpectrometry Workstation and mass-to-charge (m/z) ratio verses peak intensity recorded by MALDI-TOF mass spectrometry. […] Degradation profiles were obtained using rp-HPLC analysis and HPLC peak area data used to calculate percentage intact peptide remaining at each time point.\n(§2) Briefly, polypeptides (20 μg) were incubated with 5 μl of purified DPP-4 (5 mU, Sigma-Aldrich, Dorset, UK) in 50 mM TEA-HCl (pH 7.8; final volume 450 μl) at 37° C. for 0, 1, 4 and 12 hours. Enzymatic reactions were terminated by the addition of 50 μl TFA/H2O (10% v/v, Sigma-Aldrich, Dorset, UK). Reaction products were then separated by HPLC and analysed using MALDI-TOF."}, "DPP-4": {"target": "T2, DPP-4 (Sus scrofa, UniProt P22411)", "T2 construct": "purchased Sigma-Aldrich, Dorset, UK", "T2 sequence (P22411 whole entry)": "as above", "test": "DPP-4 degradation / in vitro DPP-4 half-life", "assay_type": "in vitro ADME, porcine", "details": "pig; 37° C., 50 mmol/L TEA-HCl pH 7.8, 5 mU purified porcine DPP-4, 0-12 h", "method": "as §1, §2"}, "lean control mice [1]": {"tested_on": "lean control mice", "test": "Acute food intake in lean control mice", "assay_type": "in vivo", "details": "250 nmol/kg i.p.", "description": "Acute animal studies were conducted in male NIH Swiss mice (12-14 weeks old, Harlan Ltd, UK) maintained on a standard rodent maintenance diet (10% fat, 30% protein and 60% carbohydrate, Trouw Nutrition, Cheshire, UK). […] All animals were housed individually in an air-conditioned room at 22±2° C. with a 12 h light:12 h dark cycle and had free access to food and water. All animal experiments were carried out in accordance with the UK Animals (Scientific Procedures) Act 1986."}, "BRIN-BD11 cells": {"tested_on": "BRIN-BD11 cells", "test": "In vitro insulin secretion from BRIN-BD11 cells", "assay_type": "cell-based", "details": "20 min; for Insulin secretion from BRIN-BD11 cells: 10^−6 mol/l peptide, vs 5.6 and 16.7 mmol/l glucose control", "method": "BRIN-BD11 cells were used to assess the insulin releasing activity of polypeptides as described by […] et al., 1996 (Diabetes. 1996 August; 45(8):1132-40). Cells were cultured in RPMI-1640 growth media supplemented with 10% (v/v) foetal bovine serum (FBS) and 1% (v/v) antibiotics (penicillin (100 U/ml), streptomycin ([…])), in 75 cm2 sterile tissue culture flasks (Greiner bio-one, UK) maintained at 37° C. and 5% CO2 in a LEEC incubator (Laboratory technical engineering, Nottingham, UK). BRIN-BD11 cells were then seeded at a density of 150,000 cells/well in 24-well plates (Nunc, Roskilde, Denmark) and allowed to attach overnight at 37° C."}, "lean control mice [2]": {"tested_on": "lean control mice", "test": "Acute and persistent glucose lowering and insulin releasing effects in lean control mice", "assay_type": "in vivo", "method": "All animal experiments were carried out in accordance with the UK Animals (Scientific Procedures) Act 1986. For food intake studies, fasted (18 h) mice were given intraperitoneal (i.p) injections of polypeptides at a dose of 25, 100 or 250 nmol/kg bw. Mice were then allowed free access to normal chow for 180 mins and cumulative food intake measured. […] Blood samples were collected from the cut tip on the tail vein of conscious mice into chilled fluoride/heparin glucose micro-centrifuge tubes (Sarstedt, Numbrecht, Germany) at the time points indicated in the Drawings. Blood glucose was measured directly using a hand-held Ascencia Contour blood glucose meter (Bayer Healthcare, Newbury, Berkshire, UK)."}}, "note": "Where a SMILES comes first, the peptide text is derived from it. [ ]: non-standard residue; d: D form.", "data": [{"molecule": "CC[C@H](C)[C@H](NC(=O)[C@H](CO)NC(=O)[C@H](Cc1ccc(O)cc1)NC(=O)[C@H](CC(=O)O)NC(=O)[C@H](CO)NC(=O)[C@@H](NC(=O)[C@H](Cc1ccccc1)NC(=O)[C@@H](NC(=O)CNC(=O)[C@H](CCC(=O)O)NC(=O)[C@@H](C)NC(=O)[C@@H](N)Cc1ccc(O)cc1)[C@@H](C)O)[C@@H](C)CC)C(=O)N[C@@H](C)C(=O)N[C@@H](CCSC)C(=O)N[C@@H](Cc1c[nH]cn1)C(=O)N1CCC[C@H]1C(=O)N[C@@H](CCC(N)=O)C(=O)N[C@@H](CCC(N)=O)C(=O)N1CCC[C@H]1C(=O)N[C@@H](Cc1c[nH]c2ccccc12)C(=O)N[C@H](C(=O)N[C@@H](CC(C)C)C(=O)O)[C@@H](C)CC", "note": "[(DAla2)GIP/xenin-8-Gln, TYR-(d)ALA-GLU-GLY-THR-PHE-ILE-SER-ASP-TYR-SER-ILE-ALA-MET-HIS-PRO-GLN-GLN-PRO-TRP-ILE-LEU] (H-Y[dA]EGTFISDYSIAMHPQQPWIL-OH; N-terminus and C-terminus assumed)", "values": [{"measurement": "Intactness on incubation with DPP-4", "setting": "purified porcine DPP-4", "result": "remained fully intact"}, {"measurement": "half-life at 44.4 µg/mL", "setting": "DPP-4", "result": "> 12", "unit": "h"}]}, {"molecule": "CC[C@H](C)[C@H](NC(=O)[C@H](CO)NC(=O)[C@H](Cc1ccc(O)cc1)NC(=O)[C@H](CC(=O)O)NC(=O)[C@H](CO)NC(=O)[C@@H](NC(=O)[C@H](Cc1ccccc1)NC(=O)[C@@H](NC(=O)CNC(=O)[C@H](CCC(=O)O)NC(=O)[C@H](C)NC(=O)[C@@H](N)Cc1ccc(O)cc1)[C@@H](C)O)[C@@H](C)CC)C(=O)N[C@@H](C)C(=O)N[C@@H](CCSC)C(=O)N[C@@H](CC(=O)O)C(=O)N[C@@H](CCCCN)C(=O)N[C@H](C(=O)N[C@@H](Cc1c[nH]cn1)C(=O)N[C@@H](CCC(N)=O)C(=O)N[C@@H](CCC(N)=O)C(=O)N[C@@H](CC(=O)O)C(=O)N[C@@H](Cc1ccccc1)C(=O)N[C@H](C(=O)N[C@@H](CC(N)=O)C(=O)N[C@@H](Cc1c[nH]c2ccccc12)C(=O)N[C@@H](CC(C)C)C(=O)N[C@@H](CC(C)C)C(=O)N[C@@H](C)C(=O)N[C@@H](CCC(N)=O)C(=O)N[C@@H](CCCCN)C(=O)NCC(=O)N[C@@H](CCCCN)C(=O)N[C@@H](CCCCN)C(=O)N[C@@H](CC(N)=O)C(=O)N[C@@H](CC(=O)O)C(=O)N[C@@H](Cc1c[nH]c2ccccc12)C(=O)N[C@@H](CCCCN)C(=O)N[C@@H](Cc1c[nH]cn1)C(=O)N[C@@H](CC(N)=O)C(=O)N[C@H](C(=O)N[C@H](C(=O)N[C@@H](CCC(N)=O)C(=O)O)[C@@H](C)O)[C@@H](C)CC)C(C)C)[C@@H](C)CC", "note": "[Native GIP, reference compound]", "values": [{"measurement": "half-life at 44.4 µg/mL", "setting": "DPP-4", "result": "< 1", "unit": "h"}]}, {"molecule": "HIS-PRO-GLN-GLN-PRO-TRP-ILE-LEU (HPQQPWIL; listed as Homo sapiens) [xenin-8-Gln]", "values": [{"measurement": "Cumulative food intake at 120 min post-injection", "setting": "lean control mice [1]", "result": "significant (P<0.05) reductions in cumulative food intake"}, {"measurement": "Insulin secretion from BRIN-BD11 cells", "setting": "BRIN-BD11 cells", "result": "significantly (P<0.05 to P<0.001) stimulated insulin secretion"}, {"measurement": "Glucose lowering or insulin releasing effects, peptide 4 h prior to glucose load", "setting": "lean control mice [2]; 25 nmol/kg 4 h before glucose 18 mmol/kg", "result": "devoid of any beneficial glucose lowering or insulin releasing effects"}, {"measurement": "Blood glucose at 30 min post injection", "setting": "lean control mice [2]; 25 nmol/kg with glucose 18 mmol/kg i.p., non-fasted mice, vs glucose alone", "result": "significantly (P<0.05) lowered blood glucose values"}, {"measurement": "Overall 0-105 min AUC blood glucose", "setting": "lean control mice [2]; 25 nmol/kg with glucose 18 mmol/kg i.p., vs glucose alone", "result": "significantly (P<0.05) decreased"}]}, {"molecule": "HIS-PRO-GLN-GLN-PRO-TRP-ILE-LEU-GLY-ALA-ALA-GLU-GLU-GLU-GLU-GLU-GLU (HPQQPWILGAAEEEEEE; listed as Homo sapiens) [GIP(L-Glu)]", "values": [{"measurement": "Insulin secretory effect in BRIN BD11 beta-cells of C-terminally modified peptide", "setting": "BRIN-BD11 cells; 10^−12-10^−6 M, vs 5.6 mM glucose alone", "result": "does not hinder biological activity at the cellular level"}]}, {"molecule": "HIS-PRO-LYS-ARG-PRO-TRP-ILE-LEU (HPKRPWIL; listed as Homo sapiens) [xenin-8, reference compound]", "values": [{"measurement": "Insulin secretion from BRIN-BD11 cells", "setting": "BRIN-BD11 cells", "result": "significantly (P<0.05 to P<0.001) stimulated insulin secretion"}]}, {"molecule": "MET-LEU-THR-LYS-PHE-GLU-THR-LYS-SER-ALA-ARG-VAL-LYS-GLY-LEU-SER-PHE-HIS-PRO-LYS-ARG-PRO-TRP-ILE-LEU (MLTKFETKSARVKGLSFHPKRPWIL; listed as Homo sapiens) [xenin, reference compound]", "values": [{"measurement": "Appetite suppressive effect at 90 min post-injection", "setting": "lean control mice [1]; vs control", "result": "significantly (P<0.05) superior to control mice"}, {"measurement": "Insulin secretion from BRIN-BD11 cells", "setting": "BRIN-BD11 cells", "result": "significantly (P<0.05 to P<0.001) stimulated insulin secretion"}]}]}
